# From the supplement of paper PMC9663587
# Tests used:
# [1] = compound: CCN1CCN(Cc2ccc(Nc3ncc(F)c(-c4cc(F)c5nc(C)n(C(C)C)c5c4)n3)nc2)CC1; experiment: increase in dead-cell fraction, 72 h; higher = more death;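 further: breast cancer cell lines in 384-well plates, stained with Hoechst plus LIVE/DEAD far red dye and imaged, cells above an LDR intensity threshold counted dead, Hoechst-negative corpses included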
# Flavopiridol [2] = compound: T1, CN1CC[C@H](c2c(O)cc(O)c3c(=O)cc(-c4ccccc4Cl)oc23)[C@H](O)C1 [Flavopiridol]; experiment: as above
# YKL-5-124 = compound: C=CC(=O)Nc1ccc(C(=O)Nc2[nH]nc3c2CN(C(=O)N[C@H](CN(C)C)c2ccccc2)C3(C)C)cc1 [YKL-5-124]; experiment: GR value, 72 h; higher = faster growth (1 = untreated, <0 = killing);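 further: breast cancer and non-malignant breast epithelial lines, nine half-log doses, viable cells counted by Hoechst and LIVE/DEAD dye imaging versus time-zero plates and DMSO controls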
# BSJ-03-123 = compound: CC(=O)c1c(C)c2cnc(Nc3ccc(N4CCN(CCOCCOCCOCCNC(=O)COc5cccc6c5C(=O)N(C5CCC(=O)NC5=O)C6=O)CC4)cn3)nc2n(C2CCCC2)c1=O [BSJ-03-123]; experiment: as above
# [3] = compound: CC(=O)c1c(C)c2cnc(Nc3ccc(N4CCNCC4)cn3)nc2n(C2CCCC2)c1=O; experiment: as above
# [4] = compound: CCN1CCN(Cc2ccc(Nc3ncc(F)c(-c4cc(F)c5nc(C)n(C(C)C)c5c4)n3)nc2)CC1; experiment: as above
# Neratinib/HKI272 = compound: CCOc1cc2ncc(C#N)c(Nc3ccc(OCc4ccccn4)c(Cl)c3)c2cc1NC(=O)/C=C/CN(C)C [Neratinib/HKI272]; experiment: as above
# [5] = compound: CCc1cnn2c(NCc3ccc[n+]([O-])c3)cc(N3CCCC[C@H]3CCO)nc12; experiment: as above
# LEE011/Ribociclib = compound: CN(C)C(=O)c1cc2cnc(Nc3ccc(N4CCNCC4)cn3)nc2n1C1CCCC1 [LEE011/Ribociclib]; experiment: as above
# THZ531 = compound: CN(C)C/C=C/C(=O)Nc1ccc(C(=O)N2CCC[C@@H](Nc3ncc(Cl)c(-c4c[nH]c5ccccc45)n3)C2)cc1 [THZ531]; experiment: as above
# THZ1 = compound: CN(C)C/C=C/C(=O)Nc1ccc(C(=O)Nc2cccc(Nc3ncc(Cl)c(-c4c[nH]c5ccccc45)n3)c2)cc1 [THZ1]; experiment: as above
# Flavopiridol [6] = compound: T1, Flavopiridol; experiment: as above
cell line,measurement,setting,value
HCC1806,increase in dead-cell fraction,[1]; 0.001 µM,0.0032
same,increase in dead-cell fraction,[1]; 0.003162 µM,-0.005
same,increase in dead-cell fraction,[1]; 0.01 µM,0.0052
same,increase in dead-cell fraction,[1]; 0.03162 µM,0.0175
same,increase in dead-cell fraction,[1]; 0.1 µM,0.0076
same,increase in dead-cell fraction,[1]; 0.3162 µM,0.0172
same,increase in dead-cell fraction,[1]; 1 µM,0.043
same,increase in dead-cell fraction,[1]; 3.162 µM,0.154
same,increase in dead-cell fraction,[1]; 10 µM,0.698
same,increase in dead-cell fraction,Flavopiridol [2]; 0.0001 µM,-0.0011
same,increase in dead-cell fraction,Flavopiridol [2]; 0.0003162 µM,-0.0029
same,increase in dead-cell fraction,Flavopiridol [2]; 0.001 µM,0.003
same,increase in dead-cell fraction,Flavopiridol [2]; 0.003162 µM,-0.001
same,increase in dead-cell fraction,Flavopiridol [2]; 0.01 µM,0.0029
same,increase in dead-cell fraction,Flavopiridol [2]; 0.03162 µM,0.005
same,increase in dead-cell fraction,Flavopiridol [2]; 0.1 µM,0.019
same,increase in dead-cell fraction,Flavopiridol [2]; 0.3162 µM,0.0572
same,increase in dead-cell fraction,Flavopiridol [2]; 1 µM,0.71
same,GR value,YKL-5-124; 0.001 µM,0.386 GR
same,GR value,YKL-5-124; 0.003162 µM,0.232 GR
same,GR value,YKL-5-124; 0.01 µM,0.105 GR
same,GR value,YKL-5-124; 0.03162 µM,0.0295 GR
same,GR value,YKL-5-124; 0.1 µM,-0.0411 GR
same,GR value,YKL-5-124; 0.3162 µM,-0.075 GR
same,GR value,YKL-5-124; 1 µM,-0.155 GR
same,GR value,YKL-5-124; 3.162 µM,-0.19 GR
same,GR value,YKL-5-124; 10 µM,-0.466 GR
same,GR value,BSJ-03-123; 0.001 µM,1 GR
same,GR value,BSJ-03-123; 0.003162 µM,0.98 GR
same,GR value,BSJ-03-123; 0.01 µM,0.958 GR
same,GR value,BSJ-03-123; 0.03162 µM,0.963 GR
same,GR value,BSJ-03-123; 0.1 µM,0.902 GR
same,GR value,BSJ-03-123; 0.3162 µM,0.831 GR
same,GR value,BSJ-03-123; 1 µM,0.648 GR
same,GR value,BSJ-03-123; 3.162 µM,0.566 GR
same,GR value,BSJ-03-123; 10 µM,-0.0555 GR
same,GR value,[3]; 0.0003162 µM,1.07 GR
same,GR value,[3]; 0.001 µM,1.02 GR
same,GR value,[3]; 0.003162 µM,0.939 GR
same,GR value,[3]; 0.01 µM,0.965 GR
same,GR value,[3]; 0.03162 µM,0.851 GR
same,GR value,[3]; 0.1 µM,0.695 GR
same,GR value,[3]; 0.3162 µM,0.739 GR
same,GR value,[3]; 1 µM,0.625 GR
same,GR value,[3]; 3.162 µM,0.771 GR
same,GR value,[4]; 0.001 µM,0.986 GR
same,GR value,[4]; 0.003162 µM,0.943 GR
same,GR value,[4]; 0.01 µM,0.894 GR
same,GR value,[4]; 0.03162 µM,0.779 GR
same,GR value,[4]; 0.1 µM,0.75 GR
same,GR value,[4]; 0.3162 µM,0.667 GR
same,GR value,[4]; 1 µM,0.447 GR
same,GR value,[4]; 3.162 µM,0.129 GR
same,GR value,[4]; 10 µM,-0.456 GR
same,GR value,Neratinib/HKI272; 0.0003162 µM,1.08 GR
same,GR value,Neratinib/HKI272; 0.001 µM,1.06 GR
same,GR value,Neratinib/HKI272; 0.003162 µM,1.04 GR
same,GR value,Neratinib/HKI272; 0.01 µM,0.99 GR
same,GR value,Neratinib/HKI272; 0.03162 µM,0.881 GR
same,GR value,Neratinib/HKI272; 0.1 µM,0.811 GR
same,GR value,Neratinib/HKI272; 0.3162 µM,0.675 GR
same,GR value,Neratinib/HKI272; 1 µM,0.546 GR
same,GR value,Neratinib/HKI272; 3.162 µM,-0.0945 GR
same,GR value,[5]; 0.0001 µM,1.04 GR
same,GR value,[5]; 0.0003162 µM,1.05 GR
same,GR value,[5]; 0.001 µM,1 GR
same,GR value,[5]; 0.003162 µM,1.01 GR
same,GR value,[5]; 0.01 µM,0.798 GR
same,GR value,[5]; 0.03162 µM,-0.315 GR
same,GR value,[5]; 0.1 µM,-0.472 GR
same,GR value,[5]; 0.3162 µM,-0.465 GR
same,GR value,[5]; 1 µM,-0.45 GR
same,GR value,LEE011/Ribociclib; 0.001 µM,0.919 GR
same,GR value,LEE011/Ribociclib; 0.003162 µM,0.948 GR
same,GR value,LEE011/Ribociclib; 0.01 µM,0.884 GR
same,GR value,LEE011/Ribociclib; 0.03162 µM,0.886 GR
same,GR value,LEE011/Ribociclib; 0.1 µM,0.876 GR
same,GR value,LEE011/Ribociclib; 0.3162 µM,0.824 GR
same,GR value,LEE011/Ribociclib; 1 µM,0.796 GR
same,GR value,LEE011/Ribociclib; 3.162 µM,0.801 GR
same,GR value,LEE011/Ribociclib; 10 µM,0.699 GR
same,GR value,THZ531; 0.0001 µM,0.976 GR
same,GR value,THZ531; 0.0003162 µM,0.999 GR
same,GR value,THZ531; 0.001 µM,1.04 GR
same,GR value,THZ531; 0.003162 µM,1.01 GR
same,GR value,THZ531; 0.01 µM,1.07 GR
same,GR value,THZ531; 0.03162 µM,1 GR
same,GR value,THZ531; 0.1 µM,0.992 GR
same,GR value,THZ531; 0.3162 µM,0.659 GR
same,GR value,THZ531; 1 µM,-0.489 GR
same,GR value,THZ1; 0.0001 µM,1.08 GR
same,GR value,THZ1; 0.0003162 µM,1.04 GR
same,GR value,THZ1; 0.001 µM,1.04 GR
same,GR value,THZ1; 0.003162 µM,1 GR
same,GR value,THZ1; 0.01 µM,0.968 GR
same,GR value,THZ1; 0.03162 µM,0.739 GR
same,GR value,THZ1; 0.1 µM,0.323 GR
same,GR value,THZ1; 0.3162 µM,-0.252 GR
same,GR value,THZ1; 1 µM,-0.656 GR
same,GR value,Flavopiridol [6]; 0.0001 µM,0.956 GR
same,GR value,Flavopiridol [6]; 0.0003162 µM,1.03 GR
same,GR value,Flavopiridol [6]; 0.001 µM,1.04 GR
same,GR value,Flavopiridol [6]; 0.003162 µM,0.878 GR
same,GR value,Flavopiridol [6]; 0.01 µM,1.03 GR
same,GR value,Flavopiridol [6]; 0.03162 µM,0.926 GR
same,GR value,Flavopiridol [6]; 0.1 µM,0.659 GR
same,GR value,Flavopiridol [6]; 0.3162 µM,0.199 GR
same,GR value,Flavopiridol [6]; 1 µM,-0.565 GR
